Data taken from patent US12678440B2, “Compositions and methods for treating misfolded protein ocular disorders” (CASE WESTERN RESERVE UNIVERSITY, priority 2020, dated 2026).

Tests used:
[1] = tested on: WT mouse rhodopsin fused with Renilla luciferase (Rluc); assay: Rluc reporter counter screen in Hek293 (RHO^WT-Rluc) cells; assay type: cell-based; conditions: for Efficacy, Rluc assay Hek293 (RHO^WT − Rluc): 24 h, DMSO 0%, Evans Blue −100% controls; for EC50: 24 h compound treatment, dose-response, triplicate
Source text: Two Hek293 stable cell lines, Hek293 (RHO^WT-Rluc) and Hek293 (RHO^P23H-Rluc) cells were generated which stably express the WT and P23H mutant mouse rhodopsin each fused with a Renilla luciferase (Rluc) for the luciferase reporter assay as previously described. Briefly, the Hek 293 cells (ATCC, Manassas, VA, USA) were transfected with the pcDNA3.1 Zeo containing the cDNA of mouse WT or P23H rhodopsin fused with a Rluc 8 (a gift from Dr. Navine Lambert at Augusta University, Augusta, GA USA) and transfected cells were incubated in Dulbecco's modified Eagle's medium (DMEM, Genesee Scientific, E1 Cajon, CA USA) with 10% fetal bovine serum (FBS, Gibco Laboratories, Gaithersburg, MD USA) for 48 h before addition of 400 μg/mL of Zeocin (InvivoGen, San Diego, CA USA) for positive clone selection. Colonies of cells survived from 1 week of Zeocin selection were collected, and expression of WT and P23H rhodopsin were confirmed by a luciferase assay and immunoblotting of rhodopsin with positive bands of monomers at about 70 kD (FIG. 8). The difference of molecular masses between WT and P23H rhodopsin proteins was due to differences in glycosylation, which was also seen in the NIH3T3 cells expressing the WT and P23H rhodopsin proteins.
The HTS was performed at three facilities, including University of Cincinnati (UC), Case Western Reserve University, and National Center for Advancing Translational Sciences (NCATS), testing a total of six compound collections. These compound collections include: 1) the UC 10K Diversity Set (10,011 compounds), 2) the Life Chemicals 50K Collection (50,560), 3) the Spectrum Collection (2,400 compounds), 4) the LOPAC collection (1,280 compounds), 5) the FDA collection (2,816 compounds), and 6) the NCATS MIPE collection (1,912 compounds). […] For the compound collections 1), 2) and 3), we firstly tested each compound using the P23H rhodopsin luciferase reporter assay at a single dose for once (9.93 to 16.13 μM) in 384-well format, and we identified 2072 compounds with activity scores lower than the cutoff at mean-2SD. Activity scores were normalized using DMSO treated cells as 0% control and the 1 mM Evans Blue treated cells as −100% control. From these hit compounds, we excluded those reported with luciferase inhibitor activities and cherry-picked the rest for hit confirmation. Each hit was tested at 10 μM in the Hek293 (RHO^P23H-Rluc) cells again by the luciferase reporter assay in triplicates, and the confirmed hits with activity scores lower than-50% were then counter screened for their effects on Rluc activity by the recombinant Rluc activity assay, and on WT rhodopsin level by the luciferase reporter assay in the Hek293 (RHO^WT-Rluc) cells at 10 μM in triplicates, respectively. […] Next, we tested the dose responses of these confirmed hits in both the Hek293 (RHO^P23H-Rluc) and the Hek293 (RHO^WT-Rluc) cells and identified compounds that selectively favored the clearance of P23H than WT rhodopsin in a dose-dependent manner (Table 4). For the compound collections 4)-6), we tested each compound directly at 7 or 11 doses using the luciferase reporter assay in the Hek293 (RHO^P23H-Rluc) cells in 1536-well format, and identified 128 compounds with efficacy smaller than-50% and EC50<20 μM.
The Rluc reporter assay has been described before. HTS was undertaken in 384-well format for the UC 10K Diversity Set, Spectrum Collection and the Life Chemicals 50K diversity set, and in 1536-well format for the FDA, LOPAC, and MIPE collections. Using the 384-well format as an example, Hek (RHO^P23H-Rluc) cells were seeded in 384-well white-wall clear-bottom plates (assay plates) at 3×10^5/mL for 40 μL/well by an 8-channel Multiflo liquid dispenser (Bioteck, Winooski, VT USA). The assay plates were centrifuged at 300×g for 30 s and cultured at 37° C. with 5% CO2 overnight. […]

RHO transcripts = assay: qPCR of RHO transcripts in NIH3T3 (RHO^P23H/GFP) and NIH3T3 (RHO^WT/GFP) cells; assay type: cell-based; conditions: 10 μM, 24 h; for WT and P23H rhodopsin transcripts in comparison to DMSO control: both cell lines; for Rho mRNA level (qPCR): vs DMSO
Experimental: NIH3T3 (RHO^WT/GFP) and NIH3T3 (RHO^P23H/GFP) cells were seeded in the 24-well plates at a density of 2.5×10^5 cells/well and cultured at 37° C. with 5% CO2 for overnight. Cells were then incubated with the culture medium containing compounds for 24 h. After aspirating the medium, cells were collected and lysed in 300 μL/well of TRIzol (ThermoFisher, 15596026, Waltham, MA USA) for 5 min. Samples were vigorously mixed with 60 μL chloroform for 30 s, then centrifuged at 12,000×g for 15 min at 4° C. The upper aqueous phase containing RNA was taken out and mixed with 150 μL isopropanol by vigorous shaking. After sedation for 10 min, samples were centrifuged at 12,000×g for 10 min at 4° C. The pellets were washed with 300 μL 75% ethanol and centrifuged at 7,500×g at 4° C. for 5 min. The RNA pellets were air-dried for 15 min and dissolved in 30 μL nuclease-free water (FisherScientific, BP2484-100, Houston, TX USA). The yield and purity of RNA were assessed by a NanoDrop spectrometer. The cDNAs was generated from 1 μg RNA using a High-Capacity RNA-to-cDNA Kit (ThermoFisher, 4387406, Waltham, MA USA). qPCR amplifications were performed using the PowerUp SYBR Green Master Mix (ThermoFisher, A25741, Waltham, MA USA) with the cDNA templates and primers, and the reaction was controlled by a QuantStudio 3 thermocycler (ThermoFisher, Waltham, MA USA). Primer sequences are as follows: RHO, forward 5′-CCCTTCTCCAACGTCACAGG-3′ (SEQ ID NO: 1), reverse 5′-TGAGGAAGTTGATGGGGAAGC-3′ (SEQ ID NO: 2); β-actin, forward 5′-ACCTTCTACAATGAGCTGCG-3′ (SEQ ID NO: 3), reverse 5′-CTGGATGGCTACGTACATGG-3′ (SEQ ID NO: 4).

Question: Which results are given for CC(=O)OC(CC(=O)[O-])C[N+](C)(C)C (stereo not shown) [CL-001]?
Answer: Efficacy, Rluc assay Hek293 (RHO^WT − Rluc) [1]: −44.3%; EC50 [1]: 1000 nM; WT and P23H rhodopsin transcripts in comparison to DMSO control (RHO transcripts): reduced non-selectively; Rho mRNA level (qPCR) (RHO transcripts): Down

Question: CC(=O)OC(CC(=O)O)C[N+](C)(C)C (stereo not shown) [CL-002] was tested. Which “Efficacy, Rluc assay Hek293 (RHO^WT − Rluc)” value (from here on “Efficacy, Rluc assay Hek293”) [1] did it give?
Answer: −62.0%

Question: What about the EC50 [1] of the same molecule?
Answer: 3400 nM

Question: And the “WT and P23H rhodopsin transcripts in comparison to DMSO control” value (from here on “WT and P23H rhodopsin transcripts”) (RHO transcripts)?
Answer: reduced non-selectively

Question: What about the “Rho mRNA level (qPCR)” value (RHO transcripts) of the same molecule?
Answer: Down

Question: For O=C(O)C1=CC=CC(O)C1O (stereo not shown) [CL-003], which “Efficacy, Rluc assay Hek293” value [1] is on record?
Answer: −37.7%

Question: And the EC50 [1]?
Answer: 1500 nM

Question: And the “WT and P23H rhodopsin transcripts” value (RHO transcripts)?
Answer: reduced non-selectively

Question: What about the “Rho mRNA level (qPCR)” value (RHO transcripts) of the same molecule?
Answer: Down

Question: Which “Efficacy, Rluc assay Hek293” value [1] does the source give for CC(O)CN (stereo not shown) [CL-004] here?
Answer: −45.5%

Question: What about the EC50 [1] of the same molecule?
Answer: 920 nM

Question: And the “WT and P23H rhodopsin transcripts” value (RHO transcripts)?
Answer: reduced non-selectively

Question: What about the “Rho mRNA level (qPCR)” value (RHO transcripts) of the same molecule?
Answer: Down

Question: What does the source list for NCC(=O)COP(=O)(O)O [CL-005]?
Answer: Efficacy, Rluc assay Hek293 (RHO^WT − Rluc) [1]: −57.9%; EC50 [1]: 4200 nM; increase of rhodopsin transcripts compared to DMSO control (RHO transcripts; both NIH3T3 (RHO^P23H/GFP) and NIH3T3 (RHO^WT/GFP) cells): up to 2 fold; Rho mRNA level (qPCR) (RHO transcripts): Up

Question: O=C(NC1CCNCC1)c1n[nH]cc1NC(=O)c1c(Cl)cccc1Cl [CL-006] was tested. Which “Efficacy, Rluc assay Hek293” value [1] did it give?
Answer: −42.9%

Question: And the EC50 [1]?
Answer: 1520 nM

Question: And the “WT and P23H rhodopsin transcripts” value (RHO transcripts)?
Answer: reduced non-selectively

Question: What about the “Rho mRNA level (qPCR)” value (RHO transcripts) of the same molecule?
Answer: Down

Question: Which results are given for CCn1cnc2c(N)ncnc21 [CL-007]?
Answer: Efficacy, Rluc assay Hek293 (RHO^WT − Rluc) [1]: −51.7%; EC50 [1]: 11000 nM; WT and P23H rhodopsin transcripts in comparison to DMSO control (RHO transcripts): reduced non-selectively; Rho mRNA level (qPCR) (RHO transcripts): Down

Question: How did the “Efficacy, Rluc assay Hek293” value [1] turn out when CCC(C)(O)C(O)C(=O)O (stereo not shown) [CL-008] was run?
Answer: −52.7%

Question: What about the EC50 [1] of the same molecule?
Answer: 590 nM

Question: And the “WT and P23H rhodopsin transcripts” value (RHO transcripts)?
Answer: reduced non-selectively

Question: What about the “Rho mRNA level (qPCR)” value (RHO transcripts) of the same molecule?
Answer: Down

Question: What does the source list for CN(Cc1cnc2nc(N)nc(N)c2n1)c1ccc(C(=O)N[C@@H](CCC(=O)O)C(=O)O)cc1 [CL-009, N-[4-[[(2,4-diamino-6-pteridinyl)methyl]methylamino]benzoyl]-L-glutamic acid]?
Answer: WT and P23H rhodopsin transcripts in comparison to DMSO control (RHO transcripts): did not affect the transcription; Rho mRNA level (qPCR) (RHO transcripts): No Change
